Source: the NIST ThermoML archive (doi:10.1016/j.fluid.2012.08.005)

Experiment: xn = mol fraction of the nth substance listed
Conditions: 101 kPa, Liquid, Vibrating tube method

c1ccoc1 [furan] + CCCCCC
mass density [kg/m3]
Conditions | x1 = 0.12 | x1 = 0.199 | x1 = 0.365 | x1 = 0.511 | x1 = 0.623 | x1 = 0.786 | x1 = 0.908 | x1 = 1
293.15 K | 677.8 | 690.2 | 721.4 | 755.2 | 786.2 | 841.2 | 891.9 | 939.8
298.15 K | 673.9 | 686.1 | 717 | 750.5 | 781.4 | 835.9 | 886.4 | 934
303.15 K | 670 | 682.2 | 712.8 | 746 | 776.6 | 830.8 | 881 | 928.3

c1ccoc1 [furan] + Cc1ccccc1
mass density [kg/m3]
Conditions | x1 = 0.1 | x1 = 0.199 | x1 = 0.387 | x1 = 0.507 | x1 = 0.591 | x1 = 0.761 | x1 = 0.89 | x1 = 1
293.15 K | 873.3 | 878.9 | 889.8 | 897.7 | 903.8 | 917.5 | 929.2 | 939.8
298.15 K | 869.5 | 875 | 885.6 | 893.2 | 899.1 | 912.4 | 923.7 | 934
303.15 K | 865.9 | 871.2 | 881.5 | 888.9 | 894.6 | 907.5 | 918.4 | 928.3

CCCCCC [hexane] + c1ccoc1
x2 = 0
Conditions | mass density [kg/m3]
293.15 K | 660.8
298.15 K | 657
303.15 K | 653.3

Cc1ccccc1 [toluene] + c1ccoc1
x2 = 0
Conditions | mass density [kg/m3]
293.15 K | 868.2
298.15 K | 864.5
303.15 K | 861
